In ChEMBL document CHEMBL3785039, “The pharmacokinetics of diclofenac sodium following intravenous and oral administration” (Eur J Clin Pharmacol, 1979):

How the values were obtained:
Type in all cases: ADME, organism-based
[1] = Plasma concentration in healthy subject (7 subjects) at 50 mg, po administered as single dose measured after 4 hrs by gas chromatography; details: human
[2] = Cmax in healthy subject (7 subjects) at 50 mg, po administered as single dose; design: dose 50 mg, route oral; details: human, in vivo
[3] = Cmax in healthy subject (7 subjects) at 50 mg, iv measured after 5 mins; design: dose 50 mg, route intravenous; details: human, in vivo
[4] = Elimination rate constant in healthy subject (7 subjects) at 50 mg, iv by three compartment open model; details: human, in vivo
[5] = AUC (0 to infinity) in healthy subject (7 subjects) at 50 mg, po administered as single dose; design: dose 50 mg, route oral, time infinity; details: human, in vivo
[6] = Oral bioavailability in healthy subject (7 subjects) at 50 mg administered as single dose; details: human, in vivo
[7] = Plasma concentration in healthy subject (7 subjects) at 50 mg, po administered as single dose measured after 5.5 hrs by gas chromatography; details: human
[8] = test system: Homo sapiens; experiment: First order inter-compartment transfer rate constant from deep tissue to central compartment in healthy subject (7 subjects) at 50 mg, iv by three compartment open model; details: in vivo
[9] = Plasma concentration in healthy subject (7 subjects) at 50 mg, po administered as single dose measured after 4.5 hrs by gas chromatography; details: human
[10] = test system: Homo sapiens; experiment: Tlag in healthy subject (7 subjects) at 50 mg, po administered as single dose; details: in vivo
[11] = test system: Homo sapiens; experiment: Fast disposition half life in healthy subject (7 subjects) at 50 mg, iv by three compartment open model; details: in vivo
[12] = Plasma concentration in healthy subject (7 subjects) at 50 mg, po administered as single dose measured after 2 hrs by gas chromatography; details: human
[13] = AUC (0 to infinity) in healthy subject (7 subjects) at 50 mg, iv by three compartment open model; design: dose 50 mg, route intravenous, time infinity; details: human, in vivo
[14] = Terminal half life in healthy subject (7 subjects) at 50 mg, iv by three compartment open model; details: human, in vivo, read-out: beta t1/2 (converted)
[15] = Total volume of distribution in healthy subject (7 subjects) at 50 mg, iv by three compartment open model; details: human, in vivo
[16] = Plasma concentration in healthy subject (7 subjects) at 50 mg, po administered as single dose measured after 3 hrs by gas chromatography; details: human
[17] = Plasma clearance in healthy subject (7 subjects) at 50 mg, iv by three compartment open model; details: human
[18] = test system: Homo sapiens; experiment: First order inter-compartment transfer rate constant from central to deep tissue compartment in healthy subject (7 subjects) at 50 mg, iv by three compartment open model; details: in vivo
[19] = Terminal half life in healthy subject (7 subjects) at 50 mg, po administered as single dose; details: human, in vivo, read-out: beta t1/2 (converted)
[20] = Plasma concentration in healthy subject (7 subjects) at 50 mg, po administered as single dose measured after 7 hrs by gas chromatography; details: human
[21] = test system: Homo sapiens; experiment: First order inter-compartment transfer rate constant from central to tissue compartment in healthy subject (7 subjects) at 50 mg, iv by three compartment open model; details: in vivo
[22] = Plasma concentration in healthy subject (7 subjects) at 50 mg, po administered as single dose measured after 8 hrs by gas chromatography; details: human
[23] = Plasma concentration in healthy subject (7 subjects) at 50 mg, po administered as single dose measured after 3.5 hrs by gas chromatography; details: human
[24] = Plasma concentration in healthy subject (7 subjects) at 50 mg, po administered as single dose measured after 2.5 hrs by gas chromatography; details: human
[25] = test system: Homo sapiens; experiment: First order inter-compartment transfer rate constant from tissue to central compartment in healthy subject (7 subjects) at 50 mg, iv by three compartment open model; details: in vivo
[26] = Slow disposition half life in healthy subject (7 subjects) at 50 mg, iv by three compartment open model; details: human, in vivo, read-out: alphat1/2 (converted)
[27] = Plasma concentration in healthy subject (7 subjects) at 50 mg, po administered as single dose measured after 1.5 hrs by gas chromatography; details: human
[28] = Plasma concentration in healthy subject (7 subjects) at 50 mg, po administered as single dose measured after 5 hrs by gas chromatography; details: human
[29] = Plasma concentration in healthy subject (7 subjects) at 50 mg, po administered as single dose measured after 9 hrs by gas chromatography; details: human
[30] = Elimination rate constant in healthy subject (7 subjects) at 50 mg, po administered as single dose; details: human, in vivo
[31] = Plasma concentration in healthy subject (7 subjects) at 50 mg, po administered as single dose measured after 6 hrs by gas chromatography; details: human
[32] = Tmax in healthy subject (7 subjects) at 50 mg, po administered as single dose; details: human, in vivo
[33] = Plasma concentration in healthy subject (7 subjects) at 50 mg, po administered as single dose measured after 1 hr by gas chromatography; details: human
[34] = Plasma concentration in healthy subject (7 subjects) at 50 mg, po administered as single dose measured after 6.5 hrs by gas chromatography; details: human

`O=C([O-])Cc1ccccc1Nc1c(Cl)cccc1Cl.[Na+]` [DICLOFENAC SODIUM] gave a concentration at 4 h [1] of 110 ng/mL, a Cmax [2] of 2000 ng/mL and a Cmax [3] of 7800 ng/mL. The k el [4] was 0.00236 s⁻¹, the AUC(0-inf) [5] was 1670 ng·h/mL and the bioavailability [6] was 54%. For the same molecule, the concentration at 5.5 h [7] was 54 ng/mL, the K [8] was 0.8 h⁻¹ and the concentration at 4.5 h [9] was 215 ng/mL. For the same molecule, the Tlag [10] was 1.9 h, the t1/2 [11] was 3 min and the concentration at 2 h [12] was 860 ng/mL. It also gave an AUC(0-inf) [13] of 3290 ng·h/mL, a half-life [14] of 1.1 h and a Vd [15] of 0.172 L/kg. It also gave a concentration at 3 h [16] of 690 ng/mL, a clearance [17] of 263 mL/min and a K [18] of 2.6 h⁻¹. The half-life [19] was 1.8 h, the concentration at 7 h [20] was 15 ng/mL and the K [21] was 5.5 h⁻¹. For the same molecule, the concentration at 8 h [22] was 11 ng/mL, the concentration at 3.5 h [23] was 240 ng/mL and the concentration at 2.5 h [24] was 710 ng/mL. The K [25] was 5.2 h⁻¹, the half-life [26] was 0.26 h and the concentration at 1.5 h [27] was 100 ng/mL. It also gave a concentration at 5 h [28] of 95 ng/mL, a concentration at 9 h [29] of 3 ng/mL and a k el [30] of 0.000183 s⁻¹. It also gave a concentration at 6 h [31] of 35 ng/mL, a Tmax [32] of 2.5 h and a concentration at 1 h [33] of 200 ng/mL. The concentration at 6.5 h [34] was 25 ng/mL.
